Assay results published in PMC5177531 (ACS chemical neuroscience, 2016).
Read-outs that look alike come from different tables or passages of the source. Non-standard residues stand in square brackets, D forms with d. Residues, ends and D or L forms follow the SMILES beside them. Dmt = Cc1cc(O)cc(C)c1C[C@H](N)C(=O)O; Tic = O=C(O)[C@@H]1Cc2ccccc2CN1; βAla = NCCC(=O)O; Sar = CNCC(=O)O

What was measured:
MOR-1 = MOR-1 (Mus musculus, UniProt P42866); assay: Competition of 3H-DAMGO binding in CHO cells expressing MOR-1
[1] = molecular target: 125I-IDAPP binding sites in C57/Bl6 brain homogenates (Mus musculus, UniProt P42866)
[2] = molecular target: 3H-DAMGO binding sites in C57 brain tissue (Mus musculus, UniProt P42866)
MOR-1 variants (Oprm1) [3] = settings: mouse, in vivo; cited from earlier work
MOR-1 variants (Oprm1) [4] = assay type: in vivo, mouse; settings: knockout and/or antisense models; Figs. 2,3,4
mMOR = mMOR (Mus musculus, UniProt P42866); assay: 35S-GTPγS binding in mMOR-CHO membranes; settings: read-out: Max stimulation (% over basal)
mKOR = mKOR (Mus musculus, UniProt P33534); assay: 35S-GTPγS binding in mKOR-CHO membranes; settings: read-out: Max stimulation (% over basal)
[5] = test system: brain membranes (WT, E11 KO, E1/E11 KO); assay: 35S-GTPγS binding in brain membranes
[6] = molecular target: spinal cord membranes (WT, E11 KO) (Mus musculus, UniProt P42866); assay: 35S-GTPγS binding in spinal cord membranes
CD-1 mice = assay: Cross tolerance in morphine pelleted mice, tail flick analgesia; assay type: in vivo, mouse; settings: for analgesic ED50: i.c.v., 72 hr
mDOR = mDOR (Mus musculus, UniProt P32300); assay: 35S-GTPγS binding in mDOR-CHO membranes; settings: read-out: Max stimulation (% over basal)
[7] = test system: C57Bl/6 wild type (WT) and exon 11 KO (E11 KO) mice; assay: Radiant heat tail flick analgesia in wild type and exon 11 KO mice; assay type: in vivo, mouse; settings: for analgesic ED50: tail flick
mMOR-1 = mMOR-1 (Mus musculus, UniProt P42866); assay: Competition binding versus 125I-IBNtxA in mMOR-CHO membranes
mDOR-1 = mDOR-1 (Mus musculus, UniProt P32300); assay: Competition binding versus 125I-IBNtxA in mDOR-CHO membranes
mKOR-1 = mKOR-1 (Mus musculus, UniProt P33534); assay: Competition binding versus 125I-IBNtxA in mKOR-CHO membranes
6TM/E11 = 6TM/E11 (Mus musculus, UniProt P42866); assay: Competition binding versus 125I-IBNtxA at the 6TM-containing
[8] = test system: E1/E11 KO and E11 KO mice; settings: cited from earlier work
[9] = test system: C57Bl/6 wild type (WT) and exon 11 KO (E11 KO) mice; settings: cited from earlier work
[10] = 0.1 nM 125I-IDAPP, C57/Bl6 brain homogenates, no blockers
[11] = E11 KO mice, supraspinal (i.c.v.; IDAPP also i.t.)

C[C@@H](O)[C@H](NC(=O)[C@H]1NC(=O)[C@H]([C@@H](C)O)NC(=O)[C@H](CCCN=C(N)N)NC(=O)[C@@H](Cc2c[nH]c3ccccc23)NC(=O)[C@H](Cc2ccc(O)cc2)NC(=O)[C@@H](NC(=O)[C@H](N)Cc2ccccc2)CSSC1(C)C)C(N)=O [CTAP, D-Phe-Cys-Tyr-D-Trp-Arg-Thr-Pen-Thr-NH2]
IC50 (MOR-1): 4.8 ± 0.4 nM | Ki [1]: 1.1 ± 0.3 nM | IC50 [2]: 4.1 ± 0.2 nM

Clc1cccc(Cl)c1N=C1NCCN1 [Clonidine]
MOR-1 Variants required for analgesia (MOR-1 variants (Oprm1) [3]): 6TM

C[C@@H](NC(=O)[C@@H](N)Cc1ccc(O)cc1)C(=O)NCC(=O)N(C)[C@@H](Cc1ccccc1)C(=O)NCCO [DAMGO, [D-Ala^2,N-MePhe^4,Gly(ol)^5]-enkephalin]
MOR-1 Variants required for analgesia (MOR-1 variants (Oprm1) [4]): 7TM | Emax (mMOR): 396 ± 21% | Emax (mKOR): -16 ± 8% | Max stimulation (% over basal) ([5]; E1/E11 KO): −6 ± 1 % over basal | EC50 ([5]; E11 KO): 220 ± 13 nM | Max stimulation (% over basal) ([5]; E11 KO): 19 ± 6 % over basal | EC50 ([5]; WT): 190 ± 8 nM | Max stimulation (% over basal) ([5]; WT): 15 ± 2 % over basal | Hill Slope [1, 10]: −0.9 ± 0.1 | Emax ([6]; read-out: Max stimulation (% over basal), spinal cord, E11 KO): 7 ± 4% | Emax ([6]; read-out: Max stimulation (% over basal), spinal cord, WT): 11 ± 2% | analgesic ED50 (CD-1 mice; morphine pellet (75 mg free base) CD-1 mice): 1.5 ± 0.47 µg | analgesia in morphine pelleted mice (cross tolerance) (CD-1 mice; morphine pelleted versus placebo): cross tolerant with morphine | analgesic ED50 (CD-1 mice; placebo pellet CD-1 mice): 0.04 ± 0.02 µg | Emax (mDOR): -2 ± 7% | analgesic ED50 ([7]; E11 KO mice, i.c.v.): 0.23 µg | analgesic ED50 ([7]; E11 KO mice, i.t.): 0.27 µg | analgesic activity in E11 KO mice ([7]; E11 KO mice, spinal (i.t.)): still elicited a full response | analgesic activity in E11 KO mice [7, 11]: retained full analgesic activity | analgesic ED50 ([7]; WT C57Bl/6 mice, i.c.v.): 0.13 µg | analgesic ED50 ([7]; WT C57Bl/6 mice, i.t.): 0.02 µg

CC[C@H](C)[C@H](NC(=O)[C@H](Cc1ccccc1)NC(=O)[C@H](Cc1ccccc1)NC(=O)[C@@H](C)NC(=O)[C@@H](N)Cc1c(C)cc(O)cc1C)C(N)=O [DAPPI, Dmt-D-Ala-Phe-Phe-Ile-NH2] (H-[Dmt][dA]FFI-NH2)
Ki (mMOR-1): 0.3 ± 0.1 nM | Ki (mDOR-1): 0.3 ± 0.2 nM | Ki (mKOR-1): 7 ± 0.4 nM

C[C@@H](NC(=O)[C@@H](N)Cc1ccc(O)cc1)C(=O)N[C@@H](Cc1ccccc1)C(=O)NCC(=O)N[C@@H](Cc1ccc(O)cc1)C(=O)N1CCC[C@H]1C(=O)N[C@@H](CO)C(N)=O [Dermorphin, Tyr-D-Ala-Phe-Gly-Tyr-Pro-Ser-NH2]
Ki (6TM/E11): > 500 nM | Ki (mMOR-1): 4 ± 0.5 nM

Cc1cccc([C@H](C)c2cnc[nH]2)c1C [Dexmedetomidine]
MOR-1 Variants required for analgesia (MOR-1 variants (Oprm1) [3]): 6TM

NC(=O)[C@H](Cc1ccccc1)NC(=O)[C@H](Cc1c[nH]c2ccccc12)NC(=O)[C@@H]1CCCN1C(=O)[C@@H](N)Cc1ccc(O)cc1 [Endomorphin 1, Tyr-Pro-Trp-Phe-NH2]
MOR-1 Variants required for analgesia (MOR-1 variants (Oprm1) [4]): 7TM + 6TM | Max stimulation (% over basal) ([5]; E1/E11 KO): −5 ± 3 % over basal | EC50 ([5]; E11 KO): 17 ± 7 nM | Max stimulation (% over basal) ([5]; E11 KO): 23 ± 1 % over basal | EC50 ([5]; WT): 222 ± 31 nM | Max stimulation (% over basal) ([5]; WT): 39 ± 2 % over basal | Hill Slope [1]: −0.7 ± 0.1 | Emax (mDOR): -3 ± 1% | analgesic activity in E11 KO mice [7, 11]: eliminated the analgesic response | analgesic ED50 ([7]; WT C57Bl/6 mice, i.c.v.): 3.39 µg

NC(=O)[C@H](Cc1ccccc1)NC(=O)[C@H](Cc1ccccc1)NC(=O)[C@@H]1CCCN1C(=O)[C@@H](N)Cc1ccc(O)cc1 [Endomorphin 2, Tyr-Pro-Phe-Phe-NH2]
MOR-1 Variants required for analgesia (MOR-1 variants (Oprm1) [4]): 7TM + 6TM | Max stimulation (% over basal) ([5]; E1/E11 KO): 1 ± 1 % over basal | EC50 ([5]; E11 KO): 103 ± 8 nM | Max stimulation (% over basal) ([5]; E11 KO): 24 ± 2 % over basal | EC50 ([5]; WT): 151 ± 43 nM | Max stimulation (% over basal) ([5]; WT): 35 ± 1 % over basal | Emax (mDOR): -3 ± 2% | analgesic activity in E11 KO mice [7, 11]: eliminated the analgesic response | analgesic ED50 ([7]; WT C57Bl/6 mice, i.c.v.): 1.14 µg

O=C(N[C@@H]1CC[C@@]2(O)[C@H]3Cc4ccc(O)c5c4[C@@]2(CCN3CC2CC2)[C@H]1O5)c1cccc(I)c1 [IBNtxA, 3-iodobenzoyl-6β-naltrexamide]
MOR-1 Variants required for analgesia (MOR-1 variants (Oprm1) [3]): 6TM | rescue of analgesia by mMOR-1G lentivirus in E1/E11 KO mice [8]: able to rescue

C[C@H]1[C@H]2C(=O)c3ccc(O)cc3[C@@]1(C)CCN2CC1CC1 [Ketocyclazocine]
MOR-1 Variants required for analgesia (MOR-1 variants (Oprm1) [3]): 6TM

CN1CC[C@]23c4c5ccc(O)c4O[C@H]2[C@@H](O[C@@H]2O[C@H](C(=O)O)[C@@H](O)[C@H](O)[C@H]2O)C=C[C@H]3[C@H]1C5 [M6G]
Hill Slope [1]: −0.6 ± 0.1 | Ki [1]: 0.7 ± 0.3 nM

CN1CC[C@]23c4c5ccc(O)c4O[C@H]2[C@@H](O)C=C[C@H]3[C@H]1C5 [Morphine]
analgesic activity in E11 KO mice [9]: maintaining full analgesic activity

Oc1ccc2c3c1O[C@H]1c4[nH]c5ccccc5c4C[C@@]4(O)[C@@H](C2)N(CC2CC2)CC[C@]314 [Naltrindole]
Ki [1, 10]: > 1000 nM

Oc1ccc2c3c1O[C@H]1c4[nH]c5c(c4C[C@@]4(O)[C@@H](C2)N(CC2CC2)CC[C@]314)C[C@@]1(O)[C@H]2Cc3ccc(O)c4c3[C@@]1(CCN2CC1CC1)[C@H]5O4 [NorBNI]
Ki [1, 10]: > 1000 nM

C=CCN1C[C@H](C)N([C@H](c2ccc(C(=O)N(CC)CC)cc2)c2cccc(OC)c2)C[C@H]1C [SNC80]
MOR-1 Variants required for analgesia (MOR-1 variants (Oprm1) [3]): 7TM + 6TM | Ki [1]: > 1000 nM

COC(=O)[C@@H]1C[C@H](OC(C)=O)C(=O)[C@H]2[C@@]1(C)CC[C@H]1C(=O)O[C@H](c3ccoc3)C[C@]21C [Salvinorin A]
MOR-1 Variants required for analgesia (MOR-1 variants (Oprm1) [3]): 6TM

C[C@@H](NC(=O)[C@@H](N)Cc1ccc(O)cc1)C(=O)N[C@@H](Cc1ccccc1)C(=O)NCCC(N)=O [TAPA, Tyr-D-Ala-Phe-βAla-NH2] (H-Y[dA]F[βAla]-NH2)
Ki (6TM/E11): 40 ± 7 nM | Ki (mMOR-1): 11 ± 0.3 nM | Ki (mDOR-1): 48 ± 1 nM | Ki (mKOR-1): > 500 nM

C[C@@H](NC(=O)[C@@H](N)Cc1ccc(O)cc1)C(=O)N[C@@H](Cc1ccccc1)C(=O)N[C@@H](Cc1ccccc1)C(N)=O [TAPP, Tyr-D-Ala-Phe-Phe-NH2] (H-Y[dA]FF-NH2)
Ki (6TM/E11): 130 ± 16 nM | Ki (mMOR-1): 3 ± 0.2 nM | Ki (mDOR-1): 3 ± 0.1 nM | Ki (mKOR-1): > 500 nM

CC[C@H](C)[C@H](NC(=O)[C@H](Cc1ccccc1)NC(=O)[C@H](Cc1ccccc1)NC(=O)[C@@H](C)NC(=O)[C@@H](N)Cc1ccc(O)cc1)C(N)=O [TAPPI, Tyr-D-Ala-Phe-Phe-Ile-NH2] (H-Y[dA]FFI-NH2)
Ki (6TM/E11): 100 ± 10 nM | Ki (mMOR-1): 0.2 ± 0.2 nM | Ki (mDOR-1): 6 ± 0.1 nM

CC(C)[C@H](NC(=O)[C@H](Cc1ccccc1)NC(=O)[C@H](Cc1ccccc1)NC(=O)[C@@H](C)NC(=O)[C@@H](N)Cc1ccc(O)cc1)C(N)=O [TAPPV, Tyr-D-Ala-Phe-Phe-Val-NH2] (H-Y[dA]FFV-NH2)
Ki (6TM/E11): > 500 nM | Ki (mMOR-1): > 500 nM

C[C@@H](NC(=O)[C@@H](N)Cc1ccc(O)cc1)C(=O)N[C@@H](Cc1ccccc1)C(=O)N(C)CC(N)=O [TAPS, Tyr-D-Ala-Phe-Sar-NH2] (H-Y[dA]F[Sar]-NH2)
Ki (6TM/E11): 50 ± 8 nM | Ki (mMOR-1): 6 ± 0.7 nM | Ki (mDOR-1): 35 ± 2 nM | Ki (mKOR-1): > 500 nM

N[C@@H](Cc1ccc(O)cc1)C(=O)N1Cc2ccccc2C[C@H]1C(=O)N[C@@H](Cc1ccccc1)C(=O)N[C@@H](Cc1ccccc1)C(=O)O [TIPP, Tyr-Tic-Phe-Phe-OH] (H-Y[Tic]FF-OH)
Ki (6TM/E11): 163 ± 12 nM | Ki (mMOR-1): > 500 nM | Ki (mKOR-1): > 500 nM

DPDPE
MOR-1 Variants required for analgesia (MOR-1 variants (Oprm1) [3]): 7TM + 6TM
